Results from patent US8029980B2, “Identification and use of agents that modulate oncogenic transcription agent activity” (The Board of Trustees of the University of Illinois, priority 2006, dated 2011).

Legend:
[1] = system: FoxM1; assay: FoxM1 protein (immunoblot) and mRNA (RT-PCR) levels in C3-Luc cells; type: cell-based, human; settings: 24 hrs
Text: FIG. 3. Mechanisms of FoxM1 inhibition by Siomycin A. (A) C3-Luc cells treated as indicated were harvested after 8 hrs and cell lysates were used for immunoprecipitation of FoxM1 protein. These samples were resolved on an SDS-PAGE gel and immunoblotted to determine total and phospho-FoxM1 levels. (B) C3-Luc cells treated with Siomycin A or DMSO were harvested 24 hrs later and the lysates were used to determine FoxM1 protein levels by immunoblotting. (C) RNA from C3-Luc cells treated with Siomycin A or DMSO for 24 hrs was used to determine levels of FoxM1 mRNA using real-time quantitative RT-PCR.
Cells treated with Siomycin A or DMSO (control) were harvested 24 hrs later and RNA was extracted using the TRIzol reagent (15596-026; Invitrogen). cDNA was prepared from this RNA using the Bio-Rad cDNA synthesis kit. […]
(§1) Immunoblotting was performed as described (18-20) with antibodies specific for p21 (556431; BD Pharmingen), survivin (sc-10811; Santa Cruz), cleaved caspase-3 (9664; Cell Signaling), and β-actin (A5441; Sigma) antibodies. Immunoblot for FoxM1 was done using the previously generated rabbit antisera (2), and phospho-FoxM1 was detected using the MPM2 monoclonal antibody (Upstate Biotechnology) which recognizes the phosphorylated protein sequence phosphoserine/phosphothreonine-proline.

[2] = system: Breast cancer cell lines BT-474, MDA-MB-231, T-47D and ZR-75-1; assay: FoxM1 and cleaved caspase-3 immunoblot in breast cancer cell lines; type: cell-based, human; settings: 5 μM, 48 hrs
Experimental: FIG. 7. […] Breast cancer cell lines BT-474, MDA-MB-231, T-47D and ZR-75-1 were treated with 5 μM Siomycin and thiostrepton, respectively, for 48 hrs and the cell lysates were analyzed for the levels of FoxM1 and cleaved caspase-3 by immunoblotting.
as §1

[3] = system: FoxM1 target genes Cdc25B, Survivin, and CENPB; assay: Real-time quantitative RT-PCR of FoxM1 target gene mRNA in C3-Luc cells; type: cell-based, human; settings: 24 hrs, vs DMSO
Experimental: (§2) FIG. 2. Siomycin A inhibits endogenous FoxM1 transcriptional activity. (A) C3-Luc cells without doxycycline induction, were treated with increasing dose of Siomycin A and luciferase activity was determined as described in Example 1. (B) C3-Luc cells treated either with DMSO (control) or Siomycin A were harvested 24 hrs later and the RNA was subjected to real-time RT-PCR for quantitation of mRNA levels of FoxM1 target genes Cdc25B, Survivin, and CENPB. (C) C3-Luc cells treated as indicated were harvested 24 hrs later and used for immunoblot analysis to determine the levels of survivin, and p21^WAF1. β-actin protein levels were used as loading control.
Cells treated with Siomycin A or DMSO (control) were harvested 24 hrs later and RNA was extracted using the TRIzol reagent (15596-026; Invitrogen). cDNA was prepared from this RNA using the Bio-Rad cDNA synthesis kit. The following sense (S) and antisense (AS) primer sequences and annealing temperatures (Ta) were used to amplify and measure the amount of human mRNA by real-time RT-PCR: FoxM1-S, 5′-GGAGGAAATGCCACACTTAGCG-3′ (SEQ ID NO: 1), and FoxM1-AS, 5′-TAGGACTTCTTGGGTCTTGGGGTG-3′ (SEQ ID NO: 2) (Ta, 55.7° C.); survivin-S, 5′-TCAAGGACCACCGCATCTCTA-3′ (SEQ ID NO: 3), and survivin-AS, 5′-TGAAGCAGAAGAAACACTGGGC-3′ (SEQ ID NO: 4) (Ta, 61° C.); CENPB-S, 5′-ATTCAGACAGTGAGGAAGAGGACG-3′ (SEQ ID NO: 5), and CENPB-AS, 5′-CATCAATGGGGAAGGAGGTCAG-3′ (SEQ ID NO: 6) (Ta, 58° C.); Cdc25B-S, 5′-CCCTTCCCTGTTTTCCTTTC-3′ (SEQ ID NO: 7), and Cdc25B-AS, 5′-ACACACACTCCTGCCATAGG-3′ (SEQ ID NO: 8) (Ta, 61.7° C.). These real-time RT-PCR RNA levels were normalized to human cyclophilin mRNA levels, and these primers are as follows: cyclophilin-S, 5′-GCAGACAAGGTCCCAAAGACAG-3′ (SEQ ID NO: 9), and cyclophilin-AS, 5′-CACCCTGACACATAAACCCTGG-3′ (SEQ ID NO: 10) (Ta, 55.7° C.).

[4] = system: HCT116 colon cancer cells; settings: another study (ref. 27); cited from earlier work
[5] = system: survivin, and p21^WAF1; assay: Immunoblot of survivin and p21WAF1 in C3-Luc cells; type: cell-based, human; settings: 24 hrs
Experimental: as §2, §1

[6] = system: Leukemia cell lines CEM, HL60 and U937; assay: FoxM1 and cleaved caspase-3 immunoblot in leukemia cell lines; type: cell-based, human; settings: 5 μM, 48 hrs
Experimental: FIG. 10. […] Leukemia cell lines CEM, HL60 and U937 were treated with 5 μM Siomycin A and thiostrepton, respectively, for 48 hrs and the cell lysates were analyzed for the levels of FoxM1 and cleaved caspase-3 by immunoblotting.
as §1
Next we treated leukemia cell lines with mutant p53 CEM, HL60 and U937 with 5 μM of these compounds for 48 hrs and the cell lysates were analyzed for the levels of FoxM1 and cleaved caspase-3 by immunoblotting.

[7] = system: 293 and Hela cells; assay: Sensitization to TNF-alpha-induced apoptosis (cleaved caspase-3 immunoblot); type: cell-based, human; settings: 1 μM Siomycin A and 10 ng/ml TNF-alpha, 24 hours
Experimental: FIG. 14. […] 293 (A) and Hela (B) cells were pretreated with the indicated concentrations of Sulfazalazine (control) for overnight. The following day the cells were treated with 1 μM Siomycin A and 10 ng/ml TNF-alpha as indicated. Twenty-four hours later the cells were harvested and the total cell lysates were used to determine the level of cleaved caspase-3. β-actin was used as the loading control.

## C=C(NC(=O)C(=C)NC(=O)c1csc(C2=N[C@@H]3c4csc(n4)[C@H]4NC(=O)c5csc(n5)[C@H]([C@](C)(O)[C@@H](C)O)NC(=O)[C@H]5CSC(=N5)/C(=C/C)NC(=O)[C@H]([C@@H](C)O)NC(=O)c5csc(n5)[C@]3(CC2)NC(=O)[C@H](C)NC(=O)C(=C)NC(=O)C(=C)NC(=O)[C@H](C(C)C)N[C@@H]2C=Cc3c([C@H](C)O)cc(nc3[C@H]2O)C(=O)O[C@@H]4C)n1)C(N)=O [Siomycin A]
[1]
  FoxM1 mRNA levels: significantly decreased
  FoxM1 protein levels: significantly decreased
[2]
  FoxM1 expression: inhibit FoxM1 expression
  apoptosis (cleaved caspase-3): induce apoptosis
[3]
  CENPB mRNA level compared to initial level: 15%
  Cdc25B mRNA level relative to basal value: 32%
  Survivin mRNA level compared to initial level: 48%
[4]
  cell death mechanism in HCT116 cells: induced Endoplasmic reticulum stress, and lysosomal membrane permeabilization followed by cell death
[5]
  p21^WAF1 protein levels: increase in its protein levels
  protein levels of survivin: dramatically reduced
[6]
  FoxM1 expression: inhibit FoxM1 expression
  apoptosis (cleaved caspase-3): induce apoptosis
[7]
  sensitization to TNF-alpha-induced apoptosis: sensitize human cancer cells to TNF-alpha-induced apoptosis
